# Reference: patent US10907153B2, “Treatment of heart disease by inhibtion of the action of muscle A-kinase anchoring protein (mAKAP)” (priority 2017, dated 2021)
# Columns and labels:
# [1] = test system: neonatal rat ventricular myocytes; assay: Hypertrophy of cultured neonatal rat ventricular myocytes (cross-section area, ANF expression); type: cell-based; conditions: for agonist-induced myocyte hypertrophy: pan-RSK inhibitors, neonatal myocytes
# Description: Neonatal rat myocytes isolation and culture: 1-3 day old Sprague-Dawley rats were decapitated and the excised hearts placed in 1×ADS Buffer (116 mmol/L NaCl, 20 mmol/L HEPES, 1 mmol/L NaH2PO4, 5.5 mmol/L glucose, 5.4 mmol/L KCl, 0.8 mmol/L MgSO4, pH 7.35). The atria were carefully removed and the blood washed away. The ventricles were minced and incubated with 15 mL 1×ADS Buffer containing 3.3 mg type II collagenase (Worthington, 230 U/mg) and 9 mg Pancreatin (Sigma) at 37° C. while shaking at 80 RPM. After 15 minutes, the dissociated cardiac myocytes were separated by centrifugation at 50×g for 1 minute, resuspended in 4 mL horse serum and incubated 37° C. with occasional agitation. The steps for enzymatic digestion and isolation of myocytes were repeated 10-12 times to maximize yield. The myocytes were pooled and spun down again at 50×g for 2 minutes and resuspended in Maintenance Medium (DMEM:M199, 4:1) supplemented with 10% horse serum and 5% fetal bovine serum. To remove any contaminating fibroblasts, the cells were pre-plated for 1 hour before plating on gelatin-coated tissue culture plasticware. This procedure yields >90% pure cardiac myocytes. After 1 day in culture, the media was changed to maintenance medium containing 0.1 mmol/L bromodeoxyuridine to suppress fibroblast growth.
# Experiments were initiated 1 day after myocyte isolation. Adenoviral infection was performed by addition of adenovirus (multiplicity of infection=5-50) to the media. Plasmids and siRNA oligonucleotides were transfected using Transfast (Promega) and Dharmafect (Thermofisher), respectively, as recommended by the manufacturers using cells cultured in maintenance medium supplemented with 4% horse serum. Starting the day after gene transduction, the cells were treated for as long as 2 days, as indicated for each experiment. […]
# Morphometry: Morphometric data was acquired using IPLab Software. […] For adult mouse cardiac myocytes, the maximum lengths perpendicular (width) or parallel (length) to the myofibrils were measured for >100 freshly dissociated myocytes per heart.
# [2] = test system: Noonan syndrome mouse model; conditions: Wu 2011; cited from earlier work
# NHE1 = conditions: Cuello 2007; cited from earlier work
# RSK = RSK activation in neonatal rat ventricular myocytes (pan-RSK S218 phospho-specific antibody); type: cell-based; conditions: α-adrenergic stimulation, MEK1/2- and MEK5-dependent
# Description: RSK family members can be activated in most cell types by ERK, but not c-Jun N-terminal kinases or p38 (Anjum 2008). ERK phosphorylation is permissive for PDK1 phosphorylation of the RSK N-terminal kinase domain, such that PDK1 phosphorylation of RSK S^218 is indicative of full activation of the enzyme (FIG. 4A of U.S. Pat. No. 9,132,174). […] The α-adrenergic stimulation with phenylephrine (PE) induced RSK phosphorylation 3-fold by both MEK1/2-dependent (that activates ERK1/2) and MEK5-dependent (that activates ERK5) mechanisms (FIG. 22 of U.S. Pat. No. 9,132,174).
# RSK3 and mAKAPβ = assay: Co-immunoprecipitation of endogenous RSK3 with mAKAPβ in neonatal myocytes; type: cell-based, rat; conditions: expressed in neonatal myocytes
# Description: Immunoprecipitations: HEK293 and COS-7 cells were transfected with Lipofectamine 2000 (Invitrogen) or Polyethylenimine “Max” (Polysciences). Cells (including myocytes) were lysed in buffer (20 mmol/L HEPES, pH 7.4, 150 mmol/L NaCl, 5 mmol/L EDTA, 0.5% Triton, 50 mmol/L NaF, 1 mmol/L sodium orthovanadate, 1 mmol/L DTT, and protease inhibitors). After centrifugation at 10,000×g for 10 minutes at 4° C., the clarified extracts were used for immunoprecipitation using appropriate antibodies (10 μg purified antibody or 1-5 μL whole serum) and 20 μL protein G sepharose (Millipore, Fastflow) for 3 hours to overnight at 4° C. The beads were washed 3-5 times with lysis buffer, and the immunoprecipitated proteins were eluted with 1× Laemmli buffer for western blotting. Western blots were developed using horseradish peroxidase-conjugated donkey secondary antibodies, Supersignal West Chemiluminescent Substrates (Thermo Scientific) and X-ray film or a Fujifilm LAS-3000 imaging system.
# B. Transfected myocytes expressing GFP or GFP-RBD (green) were stained with α-actinin (blue) and ANF (red) antibodies. Bar=20 μm. C. Cross-section area of myocytes. n=5. D. Fraction of myocytes expressing ANF. n=3. * p-values comparing to GFP-expressing samples. † p-values comparing to no agonist control.
# wildtype mice = assay: Transverse aortic constriction (2 week TAC) after AAV9 injection; type: in vivo, mouse; conditions: AAV9 injected into neonatal mice, 2 week TAC at 8 weeks of age
# Description: Transverse Aortic Constriction: All tools were sterilized with a Germinator 500 Dry Sterilizer and Betadine Solution (10% povidone-iodine topical solution). Anesthesia was induced with 5% isoflurane and maintained with 2% isoflurane and 100% oxygen at a flow rate of 1.5 L/min using a SurgiVet flow regulator via nose cone. Loss of consciousness was verified by toe pinch. Mouse fur over the left chest and sternum was removed with a calcium hydroxide lotion (e.g. Nair), and the surgical site was sterilized with betadine. The skin was incised exposing the pectoralis muscle and the second left intercostal space. […] The lobes of the thymus were retracted to reveal the transverse aortic arch as well as the right innominate and left common carotid arteries. […]
# Echocardiography: Mice minimally anesthetized with 1-2% isoflurane were studied using a Vevo 770®, High-Resolution Imaging System (VisualSonics). The pressure gradient following TAC was calculated from the pulse wave Doppler velocity at the point of ligation as follows: P=4v^2; P=the induced pressure gradient (in mmHg) and v=the velocity across the constriction (in m/s).^7
# AAV9 containing the indicated CIS plasmid encoding myc-GFP-mAKAP 1694-1833 were injected into neonatal wildtype mice. 2 week TAC was performed and analyzed as above at 8 weeks of age. […]
molecule,measurement,setting,value
CC(C)CCN1c2nc(Nc3cc(F)c(O)c(F)c3)ncc2N(C)C(=O)C1C (centres unmarked) [BI-D1870],agonist-induced myocyte hypertrophy,[1],inhibited
O=C(NOC[C@H](O)CO)c1ccc(F)c(F)c1Nc1ccc(I)cc1F [PD0325901],progression of cardiac hypertrophy cardiomyopathy and other Noonan characteristics,[2],attenuated progression
CC(=O)OC1C(C)OC(Oc2c(-c3ccc(O)cc3)oc3cc(O)cc(O)c3c2=O)C(O)C1OC(C)=O (centres unmarked) [SL0101],agonist-induced myocyte hypertrophy,[1],inhibited
Cc1ccc(-c2c(C(=O)CF)n(CCCO)c3ncnc(N)c23)cc1 [fmk],α-adrenergic-induced NHE1 phosphorylation,NHE1,blocked
CNC[C@H](O)c1cccc(O)c1 [phenylephrine],RSK phosphorylation induced,RSK,3 fold
"green fluorescent protein—mAKAP RBD fusion protein: GFP fused to the mAKAP RSK3 binding domain (mAKAP residues 1694 to 1833), an anchoring disruptor (protein, left off: small tags and cut ends; large carriers) ELSLCSEDIVLHKNKIPESNASFRKRLNRSVADESDVNVSMIVNVSCTSACTDDEDDSDLLSSSTLTLTEEELCLKDEDDDSSIATDDEIYEESNLMSGLDYIKNELQTWIRPKLSLTREKKRSGVTDEIKVNKDGGGNE",PE-induced hypertrophy,"[1]; expressed in neonatal myocytes, phenylephrine",markedly inhibited
same,association of endogenous RSK3 and mAKAPβ,RSK3 and mAKAPβ,competed the association
"myc-GFP-mAKAP 1694-1833: myc-GFP-tagged mAKAP 1694-1833 expressed in vivo from AAV9 (protein, left off: small tags and cut ends; large carriers, myc-GFP-tagged mAKAP 1694-1833 expressed in vivo from AAV9) ELSLCSEDIVLHKNKIPESNASFRKRLNRSVADESDVNVSMIVNVSCTSACTDDEDDSDLLSSSTLTLTEEELCLKDEDDDSSIATDDEIYEESNLMSGLDYIKNELQTWIRPKLSLTREKKRSGVTDEIKVNKDGGGNE",concentric hypertrophy in vivo in the adult heart,wildtype mice,inhibited concentric hypertrophy
